Laboratory results published in US20150313897A1, “METHODS FOR TREATING PARKINSON'S DISEASE” (Teva Pharmaceuticals International GmbH, priority 2009, published 2015).
Entries after “also recorded” stand apart in the source; their conditions may differ.

Experiments:
Format in all cases: in vivo, rhesus monkeys
MPTP treated monkeys [1] = experiment: Clinical Rating Scale (CRS) in primate model of Parkinson's Disease; details: NP201 at 1/9th of the oral dose; p<0.05
Description: In the MPTP Induction Phase, the monkeys were made bilaterally Parkinsonian with the use of MPTP. Monkeys received an initial dose of 0.3 mg/kg MPTP through a unilateral intracarotid injection and twice weekly injections of 0.3 mg/kg intravenous (i.v.) MPTP until they achieve a score of between 7.0 and 20.5 (e.g., 12 or higher) on the clinical rating scale with moderate bilateral Parkinsonism. Intravenous MPTP is administered at 3-5 day intervals. The actual cumulative number of i.v. MPTP injections is determined by the onset of stable bilateral symptoms. This protracted time course of i.v. MPTP administration allowed for development and evaluation of new Parkinsonian symptoms following each MPTP administration. […]
In the Experimentation Phase, the monkeys were assigned to one of three treatment groups: Group 1—oral ropinirole TID using the mean lowest effective dose determined in the Dose Finding Phase. […]
A Clinical Rating Scale for neurobehavioral examination was used to assess the clinical status of the monkeys under; normal, MPTP, and MPTP+treatment conditions, once per week, according to previously published protocols. […] Subjects were assessed once per week. All groups were assessed one hour after dosing. […] Occurrence of dyskinesia, psychological disturbances and vomiting were also recorded.

MPTP treated monkeys [2] = experiment: Activity monitoring system (AMS), 12-hour light/dark cycle
Description: (§1) In the Experimentation Phase, the monkeys were assigned to one of three treatment groups: Group 1—oral ropinirole TID using the mean lowest effective dose determined in the Dose Finding Phase. Group 2—NP201 releasing ropinirole at a dose of either approximately 1/9th or 1/18th of the total daily oral TID dose), e.g., for a single 1.00 mg/kg oral dose, the daily dose would be 3.00 mg/kg/day and the implant doses would then be 0.33 mg/kg/day or 0.17 mg/kg/day, respectively. Group 3—Control group will receive both a subcutaneous placebo implant and an oral placebo TID.
The activity monitoring system (“AMS”) records a 12-hour light/dark cycle. Each monkey was fitted with a monkey jacket that contained an activity monitor (Actitrac 1M Systems, Baltimore, Md.) in the inside back pocket. This activity monitor measured motion along its vertical and horizontal axes digitizing acceleration signals at a 40 Hertz sampling rate and stored the average acceleration value calculated during each consecutive time interval. The number of pulses was expressed for a pre-selected time period (1 minute). Data was collected continuously in 1-minute bins for a period of to 14 days. At the end of the period, the monkeys were again tranquilized with ketamine (15 mg/kg, intramuscularly), the activity monitor was removed and interfaced with a computer, and the data was downloaded. The data was expressed as the mean activity of each 12-hour light/dark cycle.

[3] = Ropinirole plasma levels (PK) after NP201 implant or TID oral ropinirole; details: oral ropinirole group relative to NP201
Description: as §1
In order to collect Pharmacokinetic (“PK”) samples, monkeys were tranquilized with ketamine (7-10 mg/kg intramuscularly) in order to collect 1 cc of blood from the saphenous vein. Plasma samples were collected into appropriately labeled collection tubes. One cc blood samples were collected by catheter or venipuncture into EDTA collection tubes for ropinirole plasma concentrations by a validated HPLC with MS/MS detection. The plasma samples were frozen within two hours after collection and remained frozen until analyzed. PK Samples for the Dose Finding Phase (Oral dose) were drawn on days 1 and 14 at 60, 120, 180, 240 and 360 minutes after one oral dose of 1.0 mg/kg. PK Samples for the Experimentation Phase (NP201 implants) were drawn in all […] test groups in order to test the blood levels of ropinirole. […]

SMILES: CCCN(CCC)CCc1cccc2c1CC(=O)N2 [oral ropinirole, 4-(2-di-n-propylaminoethyl)-2(3H)-indolone]
- CRS measure versus placebo (MPTP treated monkeys [1]): statistically superior to placebo
- activity levels, Sat-Sun (weekend) (MPTP treated monkeys [2]; days 10-42, versus pre-MPTP baseline and placebo, no active oral agent given on weekend days): resembled placebo with reduced activity relative to baseline; also recorded: indistinguishable from placebo
- activity levels, Wed-Fri (MPTP treated monkeys [2]; days 10-42, versus pre-MPTP baseline, oral: peak about 1 hour after each dose during wake cycle): exceeded baseline, pre-MPTP levels
- overall pattern of activity (12-hour light/dark cycles) (MPTP treated monkeys [2]; versus pre-MPTP baseline / healthy monkeys): alternating periods of very high activity interspersed with normal levels; also recorded: alternating periods of very high and normal activity
- variability of plasma levels [3]: much greater variability
